In patent US20230093099A1, “COMPOUNDS AND METHODS OF TREATING CANCERS” (CULLGEN (SHANGHAI), INC., priority 2019, published 2023):
pIC50: −log10 of the molar value.

system: RS4;11 cells; test: Cell viability assay (CellTiter-Glo) in RS4;11 cells; format: cell-based; settings: Homo sapiens, 72 h; RS4;11 ALL cells treated for three days; read-out: cell viability inhibition IC50
How it was run: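 RS4;11 cells seeded at 5000 per well, exposed for 3 days to 8- or 12-point 3-fold serial dilutions. Viability read by CellTiter-Glo luminescence; IC50 fitted by nonlinear least-squares regression.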

| pIC50 | SMILES |
| --- | --- |
| > 7.00 | Cc1cnc(Nc2ccc(N3CCN(CC(=O)NCCCCCNc4cccc5c4C(=O)N(C4CCC(=O)NC4=O)C5=O)CC3)cc2)nc1Nc1cccc(S(=O)(=O)NC(C)(C)C)c1 (stereo not shown) [JA-093, 2-(4-(4-((4-((3-(N-(tert-butyl)sulfamoyl)phenyl)amino)-5-methylpyrimidin-2-yl)amino)phenyl)piperazin-1-yl)-N-(5-((2-(2,6-dioxopiperidin-3-yl)-1,3-dioxoisoindolin-4-yl)amino)pentyl)acetamide] |
| > 7.00 | O=C1CCC(N2C(=O)c3ccc(NCCCCCCCC(=O)N4CCC(n5cc(-c6cnc7cccc(-c8cc(F)c(CN9CCOCC9)c(F)c8)c7n6)cn5)CC4)cc3C2=O)C(=O)N1 (stereo not shown) [JA-187, 5-((8-(4-(4-(8-(3,5-difluoro-4-(morpholinomethyl)phenyl)quinoxalin-2-yl)-1H-pyrazol-1-yl)piperidin-1-yl)-8-oxooctyl)amino)-2-(2,6-dioxopiperidin-3-yl)isoindoline-1,3-dione] |
| > 7.00 | Cc1cnc(Nc2ccc(N3CCN(C(=O)CNc4ccc5c(c4)C(=O)N(C4CCC(=O)NC4=O)C5=O)CC3)cc2)nc1Nc1cccc(S(=O)(=O)NC(C)(C)C)c1 (stereo not shown) [JA-225, N-(tert-butyl)-3-((2-((4-(4-((2-(2,6-dioxopiperidin-3-yl)-1,3-dioxoisoindolin-5-yl)glycyl)piperazin-1-yl)phenyl)amino)-5-methylpyrimidin-4-yl)amino)benzenesulfonamide] |

same assay, conditions: Homo sapiens, 72 h; RS4;11 cells; cell viability, 3 days, CellTiter-Glo; read-out: IC50

| pIC50 | SMILES |
| --- | --- |
| < 5.00 | Cc1ncsc1-c1ccc(CNC(=O)[C@@H]2C[C@@H](O)CN2C(=O)[C@@H](NC(=O)COCCOCCOCCNC(=O)CN2CCN(c3ccc(Nc4nc5cccc(-c6ccc(S(C)(=O)=O)cc6)n5n4)cc3)CC2)C(C)(C)C)cc1 [JA-131, (2S,4R)-1-((S)-2-(tert-Butyl)-17-(4-(4-((5-(4-(methylsulfonyl)phenyl)-[1,2,4]triazolo[1,5-a]pyridin-2-yl)amino)phenyl)piperazin-1-yl)-4,16-dioxo-6,9,12-trioxa-3,15-diazaheptadecanoyl)-4-hydroxy-N-(4-(4-methylthiazol-5-yl)benzyl)pyrrolidine-2-carboxamide] |
| 5.44 | Cc1ncsc1-c1ccc(CNC(=O)[C@@H]2C[C@@H](O)CN2C(=O)[C@@H](NC(=O)CCCCCCCNC(=O)CN2CCC(n3cc(-c4cnc5cccc(-c6cc(F)c(CN7CCOCC7)c(F)c6)c5n4)cn3)CC2)C(C)(C)C)cc1 [JA-156, (2S,4R)-1-((S)-2-(8-(2-(4-(4-(8-(3,5-Difluoro-4-(morpholinomethyl)phenyl)quinoxalin-2-yl)-1H-pyrazol-1-yl)piperidin-1-yl)acetamido)octanamido)-3,3-dimethylbutanoyl)-4-hydroxy-N-(4-(4-methylthiazol-5-yl)benzyl)pyrrolidine-2-carboxamide] |
| 5.26 | CS(=O)(=O)c1ccc(-c2cccc3nc(Nc4ccc(N5CCN(C(=O)CCOCCOCCOCCOCCNc6ccc7c(c6)C(=O)N(C6CCC(=O)NC6=O)C7=O)CC5)cc4)nn23)cc1 (stereo not shown) [JA-197, 2-(2,6-Dioxopiperidin-3-yl)-5-((15-(4-(4-((5-(4-(methylsulfonyl)phenyl)-[1,2,4]triazolo[1,5-a]pyridin-2-yl)amino)phenyl)piperazin-1-yl)-15-oxo-3,6,9,12-tetraoxapentadecyl)amino)isoindoline-1,3-dione] |
| 5.02 | O=C1CCC(N2C(=O)c3ccc(NCC(=O)N4CCC(n5cc(-c6cnc7cccc(-c8cc(F)c(CN9CCOCC9)c(F)c8)c7n6)cn5)CC4)cc3C2=O)C(=O)N1 (stereo not shown) [JA-191] |
| 7.13 | Cc1cnc(Nc2ccc(N3CCN(CC(=O)NCCCCCNc4cccc5c4C(=O)N(C4CCC(=O)NC4=O)C5=O)CC3)cc2)nc1Nc1cccc(S(=O)(=O)NC(C)(C)C)c1 (stereo not shown) [JA-093, 2-(4-(4-((4-((3-(N-(tert-butyl)sulfamoyl)phenyl)amino)-5-methylpyrimidin-2-yl)amino)phenyl)piperazin-1-yl)-N-(5-((2-(2,6-dioxopiperidin-3-yl)-1,3-dioxoisoindolin-4-yl)amino)pentyl)acetamide] |
| 5.58 | Cc1cnc(Nc2ccc(N3CCN(C(=O)CCOCCOCCOCCOCCOCCNc4ccc5c(c4)C(=O)N(C4CCC(=O)NC4=O)C5=O)CC3)cc2)nc1Nc1cccc(S(=O)(=O)NC(C)(C)C)c1 (stereo not shown) [JA-236, N-(tert-butyl)-3-((2-((4-(4-(1-((2-(2,6-dioxopiperidin-3-yl)-1,3-dioxoisoindolin-5-yl)amino)-3,6,9,12,15-pentaoxaoctadecan-18-oyl)piperazin-1-yl)phenyl)amino)-5-methylpyrimidin-4-yl)amino)benzenesulfonamide] |
| 5.19 | Cc1ncsc1-c1ccc(CNC(=O)[C@@H]2C[C@@H](O)CN2C(=O)[C@@H](NC(=O)CCOCCC(=O)N2CCN(c3ccc(Nc4nc5cccc(-c6ccc(S(C)(=O)=O)cc6)n5n4)cc3)CC2)C(C)(C)C)cc1 [JA-082, 4-Hydroxy-1-(2-{3-[3-(4-{4-[5-(4-methanesulfonyl-phenyl)-[1,2,4]triazolo[1,5-a]pyridin-2-ylamino]-phenyl}-piperazin-1-yl)-3-oxo-propoxy]-propionylamino}-3,3-dimethyl-butyryl)-pyrrolidine-2-carboxylic acid 4-(4-methyl-thiazol-5-yl)-benzylamide] |
| < 5.00 | Cc1ncsc1-c1ccc(CNC(=O)[C@@H]2C[C@@H](O)CN2C(=O)[C@@H](NC(=O)CCOCCOCCOCCC(=O)N2CCC(n3cc(-c4cnc5cccc(-c6cc(F)c(CN7CCOCC7)c(F)c6)c5n4)cn3)CC2)C(C)(C)C)cc1 [JA-050, (2S,4R)-1-[(2S)-2-[3-[2-[2-[3-[4-[4-[8-[3,5-Difluoro-4-(morpholinomethyl)phenyl]quinoxalin-2-yl]pyrazol-1-yl]-1-piperidyl]-3-oxo-propoxy]ethoxy]ethoxy]propanoylamino]-3,3-dimethyl-butanoyl]-4-hydroxy-N-[[4-(4-methylthiazol-5-yl)phenyl]methyl]pyrrolidine-2-carboxamide] |
| 5.55 | Cc1cnc(Nc2ccc(N3CCN(CC(=O)NCCCCNc4cccc5c4C(=O)N(C4CCC(=O)NC4=O)C5=O)CC3)cc2)nc1Nc1cccc(S(=O)(=O)NC(C)(C)C)c1 (stereo not shown) [JA-092, 2-(4-(4-((4-((3-(N-(tert-Butyl)sulfamoyl)phenyl)amino)-5-methylpyrimidin-2-yl)amino)phenyl)piperazin-1-yl)-N-(4-((2-(2,6-dioxopiperidin-3-yl)-1,3-dioxoisoindolin-4-yl)amino)butyl)acetamide] |
| < 5.00 | O=C(CN1CCC(n2cc(-c3cnc4cccc(-c5cc(F)c(CN6CCOCC6)c(F)c5)c4n3)cn2)CC1)NCCOCCOCCOCCOCCOCCNc1cccc2c1C(=O)N(C1CCC(=O)NC1=O)C2=O (stereo not shown) [JA-143, 2-[4-[4-[8-[3,5-Difluoro-4-(morpholinomethyl)phenyl]quinoxalin-2-yl]pyrazol-1-yl]-1-piperidyl]-N-[2-[2-[2-[2-[2-[2-[[2-(2,6-dioxo-3-piperidyl)-1,3-dioxo-isoindolin-4-yl]amino]ethoxy]ethoxy]ethoxy]ethoxy]ethoxy]ethyl]acetamide] |
| 5.80 | Cc1cnc(Nc2ccc(N3CCN(C(=O)CCOCCOCCOCCNc4ccc5c(c4)C(=O)N(C4CCC(=O)NC4=O)C5=O)CC3)cc2)nc1Nc1cccc(S(=O)(=O)NC(C)(C)C)c1 (stereo not shown) [JA-234, N-(tert-butyl)-3-((2-((4-(4-(3-(2-(2-(2-((2-(2,6-dioxopiperidin-3-yl)-1,3-dioxoisoindolin-5-yl)amino)ethoxy)ethoxy)ethoxy)propanoyl)piperazin-1-yl)phenyl)amino)-5-methylpyrimidin-4-yl)amino)benzenesulfonamide] |
| < 5.00 | CS(=O)(=O)c1ccc(-c2cccc3nc(Nc4ccc(N5CCN(C(=O)CCCCCCNc6cccc7c6C(=O)N(C6CCC(=O)NC6=O)C7=O)CC5)cc4)nn23)cc1 (stereo not shown) [JA-078, 2-(2,6-Dioxo-piperidin-3-yl)-4-[7-(4-{4-[5-(4-methanesulfonyl-phenyl)-[1,2,4]triazolo[1,5-a]pyridin-2-ylamino]-phenyl}-piperazin-1-yl)-7-oxo-heptylamino]-isoindole-1,3-dione] |
| < 5.00 | Cc1cnc(Nc2ccc(N3CCN(C(=O)CCOCCOCCOCCOCCC(=O)N[C@H](C(=O)N4C[C@H](O)C[C@H]4C(=O)NCc4ccc(-c5scnc5C)cc4)C(C)(C)C)CC3)cc2)nc1Nc1cccc(S(=O)(=O)NC(C)(C)C)c1 [JA-035, (2S,4R)-1-((S)-2-(tert-Butyl)-19-(4-(4-((4-((3-(N-(tert-butyl)sulfamoyl)phenyl)amino)-5-methylpyrimidin-2-yl)amino)phenyl)piperazin-1-yl)-4,19-dioxo-7,10,13,16-tetraoxa-3-azanonadecanoyl)-4-hydroxy-N-(4-(4-methylthiazol-5-yl)benzyl)pyrrolidine-2-carboxamide] |
| 7.26 | O=C1CCC(N2C(=O)c3ccc(NCCCCCCCC(=O)N4CCC(n5cc(-c6cnc7cccc(-c8cc(F)c(CN9CCOCC9)c(F)c8)c7n6)cn5)CC4)cc3C2=O)C(=O)N1 (stereo not shown) [JA-187, 5-((8-(4-(4-(8-(3,5-difluoro-4-(morpholinomethyl)phenyl)quinoxalin-2-yl)-1H-pyrazol-1-yl)piperidin-1-yl)-8-oxooctyl)amino)-2-(2,6-dioxopiperidin-3-yl)isoindoline-1,3-dione] |
| 5.72 | O=C(CN1CCC(n2cc(-c3cnc4cccc(-c5cc(F)c(CN6CCOCC6)c(F)c5)c4n3)cn2)CC1)NCCCCCCNc1ccc2c(c1)C(=O)N(C1CCC(=O)NC1=O)C2=O (stereo not shown) [JA-178, 2-(4-(4-(8-(3,5-Difluoro-4-(morpholinomethyl)phenyl)quinoxalin-2-yl)-1H-pyrazol-1-yl)piperidin-1-yl)-N-(6-((2-(2,6-dioxopiperidin-3-yl)-1,3-dioxoisoindolin-5-yl)amino)hexyl)acetamide] |
| 5.70 | Cc1cnc(Nc2ccc(N3CCN(CC(=O)NCCCCNc4ccc5c(c4)C(=O)N(C4CCC(=O)NC4=O)C5=O)CC3)cc2)nc1Nc1cccc(S(=O)(=O)NC(C)(C)C)c1 (stereo not shown) [JA-243, 2-(4-(4-((4-((3-(N-(tert-butyl)sulfamoyl)phenyl)amino)-5-methylpyrimidin-2-yl)amino)phenyl)piperazin-1-yl)-N-(4-((2-(2,6-dioxopiperidin-3-yl)-1,3-dioxoisoindolin-5-yl)amino)butyl)acetamide] |
| 7.18 | Cc1cnc(Nc2ccc(N3CCN(C(=O)CNc4ccc5c(c4)C(=O)N(C4CCC(=O)NC4=O)C5=O)CC3)cc2)nc1Nc1cccc(S(=O)(=O)NC(C)(C)C)c1 (stereo not shown) [JA-225, N-(tert-butyl)-3-((2-((4-(4-((2-(2,6-dioxopiperidin-3-yl)-1,3-dioxoisoindolin-5-yl)glycyl)piperazin-1-yl)phenyl)amino)-5-methylpyrimidin-4-yl)amino)benzenesulfonamide] |
| < 5.00 | CS(=O)(=O)c1ccc(-c2cccc3nc(Nc4ccc(N5CCN(CC(=O)NCCOCCOCCOCCNc6ccc7c(c6)C(=O)N(C6CCC(=O)NC6=O)C7=O)CC5)cc4)nn23)cc1 (stereo not shown) [JA-209, N-(2-(2-(2-(2-((2-(2,6-Dioxopiperidin-3-yl)-1,3-dioxoisoindolin-5-yl)amino)ethoxy)ethoxy)ethoxy)ethyl)-2-(4-(4-((5-(4-(methylsulfonyl)phenyl)-[1,2,4]triazolo[1,5-a]pyridin-2-yl)amino)phenyl)piperazin-1-yl)acetamide] |

| SMILES | pIC50 |
| --- | --- |
| Cc1ncsc1-c1ccc(CNC(=O)[C@@H]2C[C@@H](O)CN2C(=O)[C@@H](NC(=O)CNC(=O)CN2CCN(c3ccc(Nc4nc5cccc(-c6ccc(S(C)(=O)=O)cc6)n5n4)cc3)CC2)C(C)(C)C)cc1 [JA-126, (2S,4R)-1-((S)-3,3-Dimethyl-2-(2-(2-(4-(4-((5-(4-(methylsulfonyl)phenyl)-[1,2,4]triazolo[1,5-a]pyridin-2-yl)amino)phenyl)piperazin-1-yl)acetamido)acetamido)butanoyl)-4-hydroxy-N-(4-(4-methylthiazol-5-yl)benzyl)pyrrolidine-2-carboxamide] | < 5.00 |
